Data taken from US9131692B2, “Antibacterial imidazolium compound and antibacterial photocurable thiol-ene compositions comprising the same, and antibacterial polymer coatins prepared therefrom” (Korea Institute of Science and Technology, priority 2013, dated 2015).
Where a name gives a salt, the structure may show the parent alone.

Assays:
Format in all cases: cell-based
[1] = tested on: Moraxella catanhalis (ATCC 25240); test: MIC test of imidazolium salt
various strains = test: MIC test of imidazolium salt, overall statement; details: text summary of Table 7; compared with benzoalconium chloride (BKC)
[2] = tested on: Salmonella typhimurium (ATCC 1331); test: MIC test of imidazolium salt
[3] = tested on: Serratia marcescens (ATCC 27117); test: MIC test of imidazolium salt

SMILES: C=CCn1cc[n+](CCCCCCCCCCCC)c1 [ADIm(Br), 1-allyl-3-dodecylimidazolium salt]
- ADIm(Br) concentration at which strain has antibiosis [1]: 1000 µg/mL
- antibacterial activity over various strains (various strains): very excellent antibacterial activity, similar to that of benzoalconium chloride (BKC)
- ADIm(Br) concentration at which strain has antibiosis [2]: 1000 µg/mL
- ADIm(Br) concentration at which strain has antibiosis [3]: 1000 µg/mL
